Reference: paper PMC6470589, “Contribution of Molecular Structure to Self-Assembling and Biological Properties of Bifunctional Lipid-Like 4-(N-Alkylpyridinium)-1,4-Dihydropyridines” (Pharmaceutics, 2019)

Key:
[1] = system: NIH 3T3 (Mouse Swiss Albino embryo fibroblast) cells; test: Basal cytotoxicity test (neutral red uptake) with estimation of LD50 from IC50; type: cell-based; settings: category by estimated LD50 (mg/kg)
Procedure: The neutral red uptake (NRU) assay was performed according to the standard protocol of Stokes modified by NICEATM-ECVAM validation study. The NRU cytotoxicity assay procedure was based on the ability of viable cells to incorporate and bind neutral red, which is a supravital dye.
NIH 3T3 (Mouse Swiss Albino embryo fibroblast) cells (9000 cells/well) were placed into 96-well plates for 24 h in DMEM medium containing 5% fetal bovine serum (FBS). Then, they were exposed to the test compound over a range of seven concentrations (1000 μg/mL, 316 μg/mL, 100 μg/mL, 31 μg/mL, 10 μg/mL, 3.0 μg/mL, and 1.0 μg/mL) for 24 h. Untreated cells were used as a control. After 24 h, the medium was removed from all plates. Then, 250 μL of neutral red (NR) solution was added (0.05 mg/mL NR in DMEM 24 h pre-incubated at 37 °C and then filtered before use through a 0.22-µm syringe filter). Plates were incubated for 3 h, and then, cells were washed three times with phosphate buffered saline (PBS). The dye within viable cells was released by extraction with a mixture of acetic acid, ethanol, and water (1:50:49). The absorbance of neutral red was measured using a spectrophotometer multiplate reader Infinite M1000 (Tecan Austria GmbH, Salzburg, Austria) at 540 nm. The optical density (OD) was calculated using the formula: OD (treated cells) × 100/OD (control cells). The IC50 values were calculated using the program Graph Pad Prism® 3.0.
Data from the in vitro tests were used for estimating the starting dose for acute oral systemic toxicity tests in rodent. The in vivo starting dose is an estimated LD50 value that is calculated by inserting the in vitro IC50 value into a regression formula: log LD50 (mM/kg) = 0.439 log IC50 (mM) + 0.621 [29]. The value is recalculated to mg/kg, and compounds are evaluated in accordance with four toxicity categories: category 1: LD50 ≤ 5 mg/kg (highly toxic); category 2: 5 < LD50 ≤ 50 mg/kg (moderately toxic); category 3: 50 < LD50 ≤ 300 mg/kg (slightly toxic); category 4: 300 < LD50 ≤ 2000 mg/kg (practically non-toxic). Using an alternative in vitro method enables comparing the possible toxicity of new compounds and selecting compounds for further study, which will vastly reduce the number of animal experiments.

[2] = system: DPPC (1,2-dipalmitoyl-sn-glycero-3-phosphocholine) vesicles with DPH probe; test: Phospholipid binding assay (quenching of DPH fluorescence); settings: DPPC 2 × 10^−5 M, DPH 5 × 10^−6 M, 1,4-DHP 5 × 10^−5 M
Procedure: Binding studies of the 4-(N-alkylpyridinium)-1,4-DHP derivatives 1–11 with phospholipid were carried out in Tris-buffered saline (TBS) buffer (10 mM of Tris, 150 mM of NaCl, pH 7.4) by a fluorescence probe technique using a modified protocol described by Ma et al.. Briefly, 1,2-dipalmitoyl-sn-glycero-3-phosphocholine (DPPC) vesicles dispersed in TBS buffer were prepared by sonication of the lipid solution using a probe sonifier for 30 min. The concentration of DPPC stock solution was 6 × 10^−5 M; the concentration of the stock solutions of the 4-(N-alkylpyridinium)-1,4-DHP derivatives were 1.5 × 10^−4 M.
To characterise the hydrophobic interaction between the 1,4-DHP and phospholipids, 1,6-diphenyl-1,3,5-hexatriene (DPH) was used as a fluorescence probe. […]
Mixtures containing 40 µL of DPPC stock solution (6 × 10^−5 M) and 40 µL of DPH diluted stock solution (15 × 10^−6 M) were incubated at 50 °C for 0.5 h in the dark; then, an aliquot of 4-(N-alkylpyridinium)-1,4-DHP derivatives was added with the following incubation at 50 °C for 0.5 h in the dark, after which samples were cooled to room temperature and the fluorescence intensity was measured by a Tecan multiplate reader Infinite1000 (Tecan Austria GmbH, Salzburg, Austria). […]

With CCCCCCCCCCCC[n+]1cccc(C2C(C(=O)OCC)=C(C)NC(C)=C2C(=O)OCC)c1 [Compound 3] the “Toxicity category from estimated LD50” value [1] was “non-toxic” and the “Quenching of the fluorescence of the DPH-DPPC system” value [2] was “lowest relative fluorescence intensity”.
